Here are results for one compound from patent publication US3932625A, “Method and compound for parasite control” (Purdue Research Foundation, priority 1974, dated 1976).

The structures appear in SMILES notation.

The nature of data set [1]: Single-dose acute toxicity (lethal dose, 50% kill of test animals). To be noted: rat, in vivo, rats, route not stated, read-out: LD50 (lethal dose as measured by a 50% kill of test animals). From the text: Thus, 5-Thio-D-glucose is suitable for administering to animals and/or humans.
In data set [2] the test system is transport of real D-glucose across a cell membrane. To be noted: stated as known characteristic; cited from earlier work.

As a reminder, the LD50 is the dose at which mortality reaches 50%. For the compound `OC[C@H]1SC(O)[C@H](O)[C@@H](O)[C@@H]1O` (stereo partly drawn) [5-Thio-D-glucose], the LD50 in data set [1] came to 14000 mg/kg. In addition, in data set [2], the “inhibition of transport of real D-glucose across a cell membrane” value is recorded as “inhibiting the transport of real D-glucose across a cell membrane”.
